Measured values taken from ChEMBL document CHEMBL4414672, “Synthesis of certain benzothieno[3,2-d]pyrimidine derivatives as a selective SIRT2 inhibitors” (Eur J Med Chem, 2020).

Columns and labels:
Type in all cases: functional
HL-60(TB) = assay: Growth inhibition of human HL-60(TB) cells at 10^-5 M incubated for 48 hrs by sulforhodamine B assay; settings: HL-60, 48 h, read-out: GI
NCI-H226 = assay: Growth inhibition of human NCI-H226 cells at 10^-5 M incubated for 48 hrs by sulforhodamine B assay; settings: NCI-H226, 48 h, read-out: GI
MDA-MB-468 = assay: Growth inhibition of human MDA-MB-468 cells at 10^-5 M incubated for 48 hrs by sulforhodamine B assay; settings: MDA-MB-468, 48 h, read-out: GI
KM12 = assay: Growth inhibition of human KM12 cells at 10^-5 M incubated for 48 hrs by sulforhodamine B assay; settings: KM12, 48 h, read-out: GI
SK-MEL-28 = assay: Growth inhibition of human SK-MEL-28 cells at 10^-5 M incubated for 48 hrs by sulforhodamine B assay; settings: SK-MEL-28, 48 h, read-out: GI
OVCAR-4 = assay: Growth inhibition of human OVCAR4 cells at 10^-5 M incubated for 48 hrs by sulforhodamine B assay; settings: OVCAR-4, 48 h, read-out: GI
A498 = assay: Growth inhibition of human A498 cells at 10^-5 M incubated for 48 hrs by sulforhodamine B assay; settings: A498, 48 h, read-out: GI
EKVX = assay: Growth inhibition of human EKVX cells at 10^-5 M incubated for 48 hrs by sulforhodamine B assay; settings: read-out: GI
Malme-3M = assay: Growth inhibition of human MALME-3M cells at 10^-5 M incubated for 48 hrs by sulforhodamine B assay; settings: read-out: GI
MCF7 = assay: Growth inhibition of human MCF7 cells at 10^-5 M incubated for 48 hrs by sulforhodamine B assay; settings: MCF7, 48 h, read-out: GI
BT-549 = assay: Growth inhibition of human BT549 cells at 10^-5 M incubated for 48 hrs by sulforhodamine B assay; settings: BT-549, 48 h, read-out: GI
SF-295 = assay: Growth inhibition of human SF295 cells at 10^-5 M incubated for 48 hrs by sulforhodamine B assay; settings: SF-295, 48 h, read-out: GI
MDA-MB-231 = assay: Growth inhibition of human MDA-MB-231 cells at 10^-5 M incubated for 48 hrs by sulforhodamine B assay; settings: MDA-MB-231, 48 h, read-out: GI
ACHN = assay: Growth inhibition of human ACHN cells at 10^-5 M incubated for 48 hrs by sulforhodamine B assay; settings: read-out: GI
M14 = assay: Growth inhibition of human M14 cells at 10^-5 M incubated for 48 hrs by sulforhodamine B assay; settings: M14, 48 h, read-out: GI
HOP-62 = assay: Growth inhibition of human HOP62 cells at 10^-5 M incubated for 48 hrs by sulforhodamine B assay; settings: HOP-62, 48 h, read-out: GI
MDA-MB-435 = assay: Growth inhibition of human MDA-MB-435 cells at 10^-5 M incubated for 48 hrs by sulforhodamine B assay; settings: MDA-MB-435, 48 h, read-out: GI
IGROV-1 = assay: Growth inhibition of human IGROV1 cells at 10^-5 M incubated for 48 hrs by sulforhodamine B assay; settings: IGROV-1, 48 h, read-out: GI
OVCAR-8 = assay: Growth inhibition of human OVCAR8 cells at 10^-5 M incubated for 48 hrs by sulforhodamine B assay; settings: OVCAR-8, 48 h, read-out: GI
Hs-578T = assay: Growth inhibition of human Hs 578T cells at 10^-5 M incubated for 48 hrs by sulforhodamine B assay; settings: read-out: GI
HT-29 = assay: Growth inhibition of human HT-29 cells at 10^-5 M incubated for 48 hrs by sulforhodamine B assay; settings: HT-29, 48 h, read-out: GI
TK-10 = assay: Growth inhibition of human TK10 cells at 10^-5 M incubated for 48 hrs by sulforhodamine B assay; settings: TK-10, 48 h, read-out: GI
UO-31 = assay: Growth inhibition of human UO31 cells at 10^-5 M incubated for 48 hrs by sulforhodamine B assay; settings: UO-31, 48 h, read-out: GI
NCI-H522 = assay: Growth inhibition of human NCI-H522 cells at 10^-5 M incubated for 48 hrs by sulforhodamine B assay; settings: NCI-H522, 48 h, read-out: GI
HOP-92 = assay: Growth inhibition of human HOP92 cells at 10^-5 M incubated for 48 hrs by sulforhodamine B assay; settings: HOP-92, 48 h, read-out: GI
CAKI-1 = assay: Growth inhibition of human Caki1 cells at 10^-5 M incubated for 48 hrs by sulforhodamine B assay; settings: CAKI-1, 48 h, read-out: GI
OVCAR-3 = assay: Growth inhibition of human OVCAR3 cells at 10^-5 M incubated for 48 hrs by sulforhodamine B assay; settings: OVCAR-3, 48 h, read-out: GI
SF-268 = assay: Growth inhibition of human SF268 cells at 10^-5 M incubated for 48 hrs by sulforhodamine B assay; settings: SF-268, 48 h, read-out: GI
DU-145 = assay: Growth inhibition of human DU145 cells at 10^-5 M incubated for 48 hrs by sulforhodamine B assay; settings: DU-145, 48 h, read-out: GI
NCI-H23 = assay: Growth inhibition of human NCI-H23 cells at 10^-5 M incubated for 48 hrs by sulforhodamine B assay; settings: NCI-H23, 48 h, read-out: GI
CCRF-CEM = assay: Growth inhibition of human CCRF-CEM cells at 10^-5 M incubated for 48 hrs by sulforhodamine B assay; settings: read-out: GI
A549 = assay: Growth inhibition of human A549/ATCC cells at 10^-5 M incubated for 48 hrs by sulforhodamine B assay; settings: A549, 48 h, read-out: GI
T47D = assay: Growth inhibition of human T47D cells at 10^-5 M incubated for 48 hrs by sulforhodamine B assay; settings: read-out: GI
K562 = assay: Growth inhibition of human K562 cells at 10^-5 M incubated for 48 hrs by sulforhodamine B assay; settings: K562, 48 h, read-out: GI
SW-620 = assay: Growth inhibition of human SW620 cells at 10^-5 M incubated for 48 hrs by sulforhodamine B assay; settings: SW-620, 48 h, read-out: GI
HCT-116 = assay: Growth inhibition of human HCT116 cells at 10^-5 M incubated for 48 hrs by sulforhodamine B assay; settings: HCT-116, 48 h, read-out: GI
MOLT-4 = assay: Growth inhibition of human MOLT4 cells at 10^-5 M incubated for 48 hrs by sulforhodamine B assay; settings: MOLT-4, 48 h, read-out: GI
NCI-H322M = assay: Growth inhibition of human NCI-H322M cells at 10^-5 M incubated for 48 hrs by sulforhodamine B assay; settings: read-out: GI
SR = assay: Growth inhibition of human SR cells at 10^-5 M incubated for 48 hrs by sulforhodamine B assay; settings: read-out: GI

Compound	inhibition of growth at 10 µM (HL-60(TB)) [%]	inhibition of growth at 10 µM (NCI-H226) [%]	inhibition of growth at 10 µM (MDA-MB-468) [%]	inhibition of growth at 10 µM (KM12) [%]	inhibition of growth at 10 µM (SK-MEL-28) [%]	inhibition of growth at 10 µM (OVCAR-4) [%]	inhibition of growth at 10 µM (A498) [%]	inhibition of growth at 10 µM (EKVX) [%]	inhibition of growth at 10 µM (Malme-3M) [%]	inhibition of growth at 10 µM (MCF7) [%]	inhibition of growth at 10 µM (BT-549) [%]	inhibition of growth at 10 µM (SF-295) [%]	inhibition of growth at 10 µM (MDA-MB-231) [%]	inhibition of growth at 10 µM (ACHN) [%]	inhibition of growth at 10 µM (M14) [%]	inhibition of growth at 10 µM (HOP-62) [%]	inhibition of growth at 10 µM (MDA-MB-435) [%]	inhibition of growth at 10 µM (IGROV-1) [%]	inhibition of growth at 10 µM (OVCAR-8) [%]	inhibition of growth at 10 µM (Hs-578T) [%]	further results
NNC1=Nc2c(sc3ccc(Cl)cc23)C(c2cccc([N+](=O)[O-])c2)N1 (stereo unspecified)	2.98	18.4	7.99	1.7	-26.6	1.81	-27.2	16.9	-5	18.1	-17.8	-3.08	16.3	6.37	-4.43	6.98	-7.56	23.8	-1.52	-2.75	inhibition of growth at 10 µM (HT-29): -13.5%; inhibition of growth at 10 µM (TK-10): -18.2%; inhibition of growth at 10 µM (UO-31): 42.9%; inhibition of growth at 10 µM (NCI-H522): 7.13%; inhibition of growth at 10 µM (HOP-92): -12.8%; inhibition of growth at 10 µM (CAKI-1): 18.5%; inhibition of growth at 10 µM (OVCAR-3): -1.38%; inhibition of growth at 10 µM (SF-268): 1.93%; inhibition of growth at 10 µM (DU-145): -9.18%; inhibition of growth at 10 µM (NCI-H23): 9.49%; inhibition of growth at 10 µM (CCRF-CEM): -19.8%; inhibition of growth at 10 µM (A549): -4.45%; inhibition of growth at 10 µM (T47D): 12.8%; inhibition of growth at 10 µM (K562): 13.3%; inhibition of growth at 10 µM (SW-620): -6.43%; inhibition of growth at 10 µM (HCT-116): -0.35%; inhibition of growth at 10 µM (MOLT-4): 13%; inhibition of growth at 10 µM (NCI-H322M): 4.45%; inhibition of growth at 10 µM (SR): 1.98%
CCOC(=O)CSC1=Nc2c(sc3ccc(Cl)cc23)C(c2cccc([N+](=O)[O-])c2)N1 (stereo unspecified)	3.55	8.28	-24.4	-0.19	-14	-4.53	6.9	15.9	5.55	20.1	-12.4	-0.53	9.26	6.61	-3.62	19.6	-10.6	21.6	-1.34	-3.04	inhibition of growth at 10 µM (HT-29): -15.9%; inhibition of growth at 10 µM (TK-10): -16.2%; inhibition of growth at 10 µM (UO-31): 44.7%; inhibition of growth at 10 µM (NCI-H522): 4.34%; inhibition of growth at 10 µM (HOP-92): -10.1%; inhibition of growth at 10 µM (CAKI-1): 16.5%; inhibition of growth at 10 µM (OVCAR-3): 0.63%; inhibition of growth at 10 µM (SF-268): 3.8%; inhibition of growth at 10 µM (DU-145): -8.66%; inhibition of growth at 10 µM (NCI-H23): 9.36%; inhibition of growth at 10 µM (CCRF-CEM): -8.55%; inhibition of growth at 10 µM (A549): 2.51%; inhibition of growth at 10 µM (T47D): 22.6%; inhibition of growth at 10 µM (K562): 10.3%; inhibition of growth at 10 µM (SW-620): -4.96%; inhibition of growth at 10 µM (HCT-116): 3.88%; inhibition of growth at 10 µM (MOLT-4): 14.6%; inhibition of growth at 10 µM (NCI-H322M): 7.77%; inhibition of growth at 10 µM (SR): 21.4%
N=C1Nc2c(sc3ccc(Cl)cc23)C(c2ccc3ccccc3c2)N1 (stereo unspecified)	-3.45	6.58	-6.39	3.41	2.06	6.63	6.65	1.13	1.8	6.28	5.47	-3.49	-0.83	25.9	-0.34	13.8	-4.57	-4.93	-3.15	14.6	inhibition of growth at 10 µM (HT-29): -3.45%; inhibition of growth at 10 µM (TK-10): 30.2%; inhibition of growth at 10 µM (UO-31): 14.6%; inhibition of growth at 10 µM (NCI-H522): -6.52%; inhibition of growth at 10 µM (HOP-92): 8.76%; inhibition of growth at 10 µM (CAKI-1): -12.5%; inhibition of growth at 10 µM (OVCAR-3): 8.92%; inhibition of growth at 10 µM (SF-268): -5.53%; inhibition of growth at 10 µM (DU-145): 12.1%; inhibition of growth at 10 µM (NCI-H23): 5.66%; inhibition of growth at 10 µM (CCRF-CEM): -3.9%; inhibition of growth at 10 µM (A549): 7.42%; inhibition of growth at 10 µM (T47D): -15.3%; inhibition of growth at 10 µM (K562): 6.06%; inhibition of growth at 10 µM (SW-620): 0.99%; inhibition of growth at 10 µM (HCT-116): 10.6%; inhibition of growth at 10 µM (MOLT-4): 10.9%; inhibition of growth at 10 µM (NCI-H322M): 6.59%; inhibition of growth at 10 µM (SR): -0.62%
N=C1Nc2c(sc3ccc(Cl)cc23)C(c2cccc([N+](=O)[O-])c2)N1 (stereo unspecified)	5.44	14.4	1.02	6.62	4.08	-4.7	9.1	15.1	-4.49	10.7	5.75	-5.78	-0.16	22.8	-5.05	-6.16	-4.98	4.94	9.4	-17.4	inhibition of growth at 10 µM (HT-29): 1.65%; inhibition of growth at 10 µM (TK-10): 40.3%; inhibition of growth at 10 µM (UO-31): 11.1%; inhibition of growth at 10 µM (NCI-H522): -4.45%; inhibition of growth at 10 µM (HOP-92): 19.2%; inhibition of growth at 10 µM (CAKI-1): -10.8%; inhibition of growth at 10 µM (OVCAR-3): 10.7%; inhibition of growth at 10 µM (SF-268): -1.81%; inhibition of growth at 10 µM (DU-145): 20.5%; inhibition of growth at 10 µM (NCI-H23): 5.31%; inhibition of growth at 10 µM (CCRF-CEM): 8.41%; inhibition of growth at 10 µM (A549): 20.4%; inhibition of growth at 10 µM (T47D): 1.02%; inhibition of growth at 10 µM (K562): 9.47%; inhibition of growth at 10 µM (SW-620): 3.17%; inhibition of growth at 10 µM (HCT-116): 2.65%; inhibition of growth at 10 µM (MOLT-4): 21.2%; inhibition of growth at 10 µM (NCI-H322M): 4.7%; inhibition of growth at 10 µM (SR): -3.11%
